Reference: US8354447B2, “mGLU receptors antagonists for treating disorders associated with mGLU receptors including addiction and depression” (The Scripps Research Institute, priority 2002, dated 2013)
Structures can show the parent of a compound that is named as a salt. Where two headings read alike, the source gives them in different places.

Assays:
male Wistar rats [1] = experiment: ICSS thresholds after intra-ventral tegmental area LY314582; type: in vivo, rat
Experimental: All injections were administered bilaterally in a volume of 0.5 μl/side given over 66 sec through 17 mm injectors. The injectors were connected to calibrated polyethylene-10 tubing preloaded with drug solution and protruded 3 mm below the ends of the cannulas into the VTA. After infusion, the injectors were kept in place for an additional 60 sec to allow for drug diffusion. Injectors were then removed and replaced with 14 mm wire stylets, and the animals then placed directly into the ICSS testing apparatus. Injections were made using a Harvard microinfusion pump (Model 975).
After stable baseline ICSS responding was achieved (≦10% variation in threshold for 3 consecutive days), rats (n=15) with bilateral cannulas directed toward the VTA were allocated to two groups such that there were no differences in mean baseline reward thresholds or body weight between groups. […] Animals again were tested in the ICSS paradigm each day for seven days prior to drug treatment. […] There was a minimum 48 h interval between each injection, during which ICSS thresholds continued to be measured, to allow thresholds to return to baseline levels before further drug tests. At the conclusion of the experiment, all animals were anaesthetized and their brains removed and immediately placed on ice. The brains were cut in 50 μm sections, and placements of the injectors and the electrodes were examined (see FIG. 1 for histological verification of injection sites). Only those rats with injection tips located within the VTA were included in statistical analyses.

male Wistar rats [2] = test system: male Wistar rats
Description: Animals were trained to respond according to a modification of the discrete-trial current-threshold procedure of Kornetsky and Esposito (Fed Proc 38:2473-2476, 1979), which has been described in detail previously (Markou and Koob, 1992 Physiol Behav 51:111-119). Briefly, a trial was initiated by the delivery of a non-contingent electrical stimulus. […] The current intensity delivered was adjusted for each animal and typically ranged from 50 to 200 μA. […] After a variable inter-trial interval (7.5-12.5 sec, average of 10 sec), another trial was initiated with the delivery of a non-contingent electrical stimulus. […] Responding during the inter-trial interval delayed the onset of the next trial by 12.5 sec. Current levels were varied in alternating descending and ascending series. A set of three trials was presented for each current intensity. Current intensities were altered in 5 μA steps. In each testing session, four alternating descending-ascending series were presented. […] The overall threshold of the session was defined as the mean of the thresholds for the four individual series. Each testing session was ˜30 min in duration. The latency between the onset of the non-contingent stimulus and a positive response was recorded as the response latency. The response latency for each test session was defined as the mean response latency of all trials during which a positive response occurred. After establishment of stable ICSS reward thresholds, rats were tested in the ICSS procedure once daily except for the spontaneous nicotine withdrawal experiment when rats were tested at time-points according to the experimental design.
Systemic administration experiments. These experiments investigated whether nicotine withdrawal, as measured by elevations in ICSS thresholds, could be precipitated in nicotine-treated rats by systemic administration of an agonist at mGluII receptors (LY314582), an agonist at GABAB receptors (CGP44532), or antagonists at mGlu5 (MPEP), NMDA (MK-801) or AMPA/Kainate (NBQX) glutamate receptors. For each drug tested, rats were trained in the ICSS paradigm until stable baseline responding was achieved, defined as ≦10% variation in thresholds for 3 consecutive days and requiring approximately 14 days of daily testing. […] One group was then prepared with subcutaneous osmotic mini-pumps delivering vehicle and the second group with mini-pumps delivering 9 mg/kg/day nicotine hydrogen tartrate (3.16 mg/kg/day nicotine free base). There was a minimum seven-day interval after mini-pump implantation, during which ICSS reward thresholds continued to be measured daily, before the effect of any systemically administered drug on reward thresholds was evaluated.

drug-naïve rats = conditions: previous studies (Harrison et al., 2002; Macey et al., 2001); cited from earlier work
male Wistar rats [3] = conditions: 5 mg/kg fluoxetine alone (Harrison et al. 2001); cited from earlier work
male Wistar rats [4] = experiment: Brain stimulation reward (ICSS) under baseline conditions, paroxetine and p-MPPI; type: in vivo, rat
Experimental: Male Wistar rats (Charles River, Hollister, Calif.) (300-320 g at the start of the experiments) were housed in pairs in a temperature and humidity controlled environment with a 12 hr light/dark cycle. Food and water were available ad libitum. A different set of subjects was used for each experiment. All subjects were treated in accordance with the National Institutes of Health “Guide for the Care and Use of Laboratory Animals,” and the animal facilities and the experimental protocols were in accordance with the Association for the Assessment and Accreditation of Laboratory Animal Care. Most of the behavioral testing was conducted during the light phase of the subjects' light/dark cycle, unless otherwise dictated by the experimental design due to time-course assessment of behavioral parameters. Apparatus The experimental apparatus consisted of 16 Plexiglas chambers (30.5×30×17 cm) (Med Associates Inc., St. Albans, Vt.) encased in sound-attenuating boxes (San Diego Instruments, San Diego, Calif.). Each operant chamber consisted of a stainless steel grid floor and a metal wheel manipulandum located on one wall, which required a 0.2 N force to rotate it a quarter turn. Gold-contact swivel commutators and bipolar leads connected the animals in the stimulation circuit (Plastics One, Roanoke, Va.). Brain stimulation was administered by constant current stimulators (Stimtek 1200, San Diego Instruments, San Diego, Calif.). […] During a 2 sec period immediately following a positive response, further responses were recorded as extra responses but had no consequence. If no response occurred during the 7.5 sec limited hold period a negative response was recorded. […] Thus, during each session, four current-thresholds were recorded and the mean of these values was taken as the current-threshold for each subject for each test session. Response Latency: The latency between the onset of the non-contingent stimulus and a positive response was recorded as the response latency. […]

male Wistar rats [5] = experiment: Reward deficits during amphetamine withdrawal (ICSS thresholds, response latencies, body weight); conditions: for response latencies during withdrawal: 36 hr after the final amphetamine or saline injection; for return to baseline reward threshold levels before the amphetamine-withdrawing non-drug-treated rats: acute treatment prior to the 36 hr test, paroxetine 1.25 mg/kg, p-MPPI 3 mg/kg; for body weight during amphetamine withdrawal: amphetamine-exposed rats; for reward thresholds: saline-exposed animals, paroxetine 1.25 mg/kg or p-MPPI 3 mg/kg
Experimental: Male Wistar rats (Charles River, Hollister, Calif.) (300-320 g at the start of the experiments) were housed in pairs in a temperature and humidity controlled environment with a 12 hr light/dark cycle. Food and water were available ad libitum. A different set of subjects was used for each experiment. All subjects were treated in accordance with the National Institutes of Health “Guide for the Care and Use of Laboratory Animals,” and the animal facilities and the experimental protocols were in accordance with the Association for the Assessment and Accreditation of Laboratory Animal Care. Most of the behavioral testing was conducted during the light phase of the subjects' light/dark cycle, unless otherwise dictated by the experimental design due to time-course assessment of behavioral parameters. Apparatus The experimental apparatus consisted of 16 Plexiglas chambers (30.5×30×17 cm) (Med Associates Inc., St. Albans, Vt.) encased in sound-attenuating boxes (San Diego Instruments, San Diego, Calif.). Each operant chamber consisted of a stainless steel grid floor and a metal wheel manipulandum located on one wall, which required a 0.2 N force to rotate it a quarter turn. Gold-contact swivel commutators and bipolar leads connected the animals in the stimulation circuit (Plastics One, Roanoke, Va.). Brain stimulation was administered by constant current stimulators (Stimtek 1200, San Diego Instruments, San Diego, Calif.). Surgical Procedure The rats were prepared with 11 mm stainless steel bipolar electrodes (Plastics One; diameter=0.25 mm) in the posterior lateral hypothalamus (AP −0.5 mm from bregma; L±1.7 mm; DV −8.3 mm from dura, with the incisor bar set at 5 mm above the interaural line; Pellegrino et al. 1979 under halothane anaesthesia (1-1.5% halothane/oxygen mixture). Subjects were allowed to recover for at least seven days before any behavioral testing. Half of the electrodes were positioned on the right hemisphere and the other half on the left hemisphere to counterbalance possible brain asymmetries. […] The subjects were initially trained to turn the wheel manipulandum on a fixed ratio 1 schedule of reinforcement. […] The current intensity delivered was adjusted for each animal and typically ranged from 100 to 200 μA. After successful familiarization with this procedure (2 sessions of 100 reinforcers in less than 20 minutes), the rats were gradually trained on a discrete-trial, current-threshold procedure. At the start of each trial rats received a non-contingent electrical stimulus. During the following 7.5 sec, the limited hold, if the subjects responded by turning the wheel manipulandum a quarter turn (positive response) they received a second, contingent stimulus identical to the previous non-contingent stimulus. During a 2 sec period immediately following a positive response, further responses were recorded as extra responses but had no consequence. If no response occurred during the 7.5 sec limited hold period a negative response was recorded. […] Stimulation intensities were varied according to the classical psychophysical method of limits. The subjects received four alternating series of ascending and descending current intensities starting with a descending series. Within each series the stimulus intensity was altered by 5 μA steps between each set of trials (three trials per set). After training in the above procedure, rats were tested until stable baseline thresholds had been achieved L+10% over a 5-day period). […] During the ascending series, the reverse situation defined the threshold. Thus, during each session, four current-thresholds were recorded and the mean of these values was taken as the current-threshold for each subject for each test session. Response Latency: The latency between the onset of the non-contingent stimulus and a positive response was recorded as the response latency. The response latency for each test session was defined as the mean response latency of all trials during which a positive response occurred. […]

rats = conditions: single high dose 120-300 mg/kg orally, rats (Ryan et al. 2001); cited from earlier work
[6] = Lemberger et al. 1985; Prakash and Foster 1999; cited from earlier work

NC1(C(=O)O)CCC2C(C(=O)O)C21 (racemic) [LY314582, 2-aminobicyclo(3.1.0)hexane-2,6-dicarboxylic acid]
ICSS response Latencies (male Wistar rats [1]; after VTA administration, nicotine-treated or control rats): had no effect on response latencies
ICSS reward thresholds (male Wistar rats [1]; bilateral microinfusion into the VTA, 10-100 ng/side): significantly elevated reward thresholds in nicotine-treated but not control rats
ICSS reward thresholds (male Wistar rats [1]; intra-VTA 50 and 100 ng/side): sufficient to elevate reward thresholds in nicotine-treated rats without affecting thresholds in control rats
ICSS reward thresholds (male Wistar rats [2]; 7.5 mg/kg i.p., nicotine-treated rats, p<0.01): elevated reward thresholds in nicotine-treated rats compared to vehicle treatment
ICSS reward thresholds (male Wistar rats [2]; 2.5-7.5 mg/kg intraperitoneal, nicotine-treated and control rats): elevated ICSS reward thresholds in nicotine-treated but not control rats
ICSS response Latencies (male Wistar rats [2]; LY314582 2.5-7.5 mg/kg i.p., any dose tested): had no effect on response latencies in nicotine-treated or control rats
dose that elevated ICSS thresholds in drug-naïve rats (drug-naïve rats): ≥ 10 mg/kg

CNCCC(Oc1ccc(C(F)(F)F)cc1)c1ccccc1 (stereo not drawn) [fluoxetine]
duration of amphetamine withdrawal reward deficits (male Wistar rats [3]): reduced the duration of the reward deficits

COc1ccccc1N1CCN(CCN(C(=O)c2ccc(I)cc2)c2ccccn2)CC1.Cl [p-MPPI]
reward thresholds (male Wistar rats [4]; p-MPPI 1, 3, 10 mg/kg alone): had no effect on reward thresholds
response latencies (male Wistar rats [4]; p-MPPI 1-10 mg/kg (Example 4.2)): had no effect on response latencies
response latencies during withdrawal (male Wistar rats [5]): had no effect on response latencies
return to baseline reward threshold levels before the amphetamine-withdrawing non-drug-treated rats (male Wistar rats [5]): 24 h
body weight during amphetamine withdrawal (male Wistar rats [5]): appeared to gain weight similarly to vehicle-treated rats
reward thresholds (male Wistar rats [5]): Neither paroxetine (FIG. 4A & 4D) nor p-MPPI (FIG. 20B and 20E) had an effect on thresholds of saline-exposed animals

Fc1ccc([C@@H]2CCNC[C@H]2COc2ccc3c(c2)OCO3)cc1 [paroxetine, Paroxetine hydrochloride]
body weight and food consumption (rats): produces a reduction in body weight and food consumption
brain reward thresholds (male Wistar rats [4]; paroxetine 1.25-10 mg/kg, 120 min before test): had no statistically significant effect on thresholds
half-life [6]: approximately 24 hours
response latencies during withdrawal (male Wistar rats [5]): significantly slower than those of either vehicle or p-MPPI treated rats
return to baseline reward threshold levels before the amphetamine-withdrawing non-drug-treated rats (male Wistar rats [5]): 24 h
body weight during amphetamine withdrawal (male Wistar rats [5]): did not gain weight during withdrawal
reward thresholds (male Wistar rats [5]): Neither paroxetine (FIG. 4A & 4D) nor p-MPPI (FIG. 20B and 20E) had an effect on thresholds of saline-exposed animals
